According to US9175077B2, “Nucleic acids encoding biologically active polypeptides derived from a novel early stage pregnancy factor designated maternin (MA)” (NOBEL BIOSCIENCES LLC, priority 1999, dated 2015):

Legend:
[1] = tested on: prostate carcinoma cell line PC3; experiment: Confocal microscopy apoptosis; format: cell-based, human; conditions: 200 ng/ml; 24 hrs
Experimental: (§1) More extensive studies of the effects of MA and with truncated synthetic forms of MA (MAS) on a wide range of other human tumor cells were carried out using three-dimensional confocal microscopy. Cells were cultured and then seeded onto gelatinized glass chamber slides and incubated 24 hrs with the various test materials. The slides were then fixed with formalin and treated serially with Triton X-100 (0.01%) for 10 min at 25°, 0.4 ug/ml fluorescein isothiocyanate (FITC)-labeled Phalloidin (Sigma Chem. Co.) at room temperature for 30 min to bind actin, washed with PBS and the DNA stained with Propidium iodide (PI) (0.5 ug·ml) (Sigma Chemical Co.), for 15 min. The stained slides were washed and mounted on slow fade (Molecular Probes, Inc., Eugene, Oreg.) and examined through a dual emission filter XF53 (Omega, Inc., Brattlesboro, Va.) by fluorescent microscopy. In some experiments only DNA staining was performed. In these instances Triton X-100 was not used. The slides were stained with PI and examined for cell morphology and chromatin degradation under 3D confocal microscopy.

[2] = tested on: leukemia and lymphoma cell lines: HUT78, DAVDI, HG, SULTAN, T-cell lymphoma; experiment: Confocal microscopy apoptosis; format: cell-based, human; conditions: 200 ng/ml; 24 hrs
Experimental: as §1

fibrosarcoma 4TB166 = experiment: Confocal microscopy apoptosis; format: cell-based, human; conditions: 200 ng/ml; 24 hrs
Experimental: as §1

[3] = tested on: carcinoma of the lung HTB184; experiment: Confocal microscopy apoptosis; format: cell-based, human; conditions: 200 ng/ml; 24 hrs
Experimental: as §1

[4] = tested on: prostate carcinoma cell line PC4; experiment: Confocal microscopy apoptosis; format: cell-based, human; conditions: 200 ng/ml; 24 hrs
Experimental: as §1

[5] = tested on: carcinoma of the breast HTB124; experiment: Confocal microscopy apoptosis; format: cell-based, human; conditions: 200 ng/ml; 24 hrs
Experimental: as §1

KS Y-1 cells = experiment: Confocal microscopy apoptosis; format: cell-based, human; conditions: 200 ng/ml; 24 hrs
Experimental: as §1

[6] = tested on: carcinoma of the pancreas CRL 1682; experiment: Confocal microscopy apoptosis; format: cell-based, human; conditions: 200 ng/ml; 24 hrs
Experimental: as §1

[7] = tested on: carcinoma of the kidney HTB46; experiment: Confocal microscopy apoptosis; format: cell-based, human; conditions: 200 ng/ml; 24 hrs
Experimental: as §1

gliobastoma HTB16 = experiment: Confocal microscopy apoptosis; format: cell-based, human; conditions: 200 ng/ml; 24 hrs
Experimental: as §1

carcinoma of the colon = experiment: Confocal microscopy apoptosis; format: cell-based, human; conditions: 200 ng/ml; 24 hrs
Experimental: as §1

melanoma HTB67 = experiment: Confocal microscopy apoptosis; format: cell-based, human; conditions: 200 ng/ml; 24 hrs
Experimental: as §1

Ewing's sarcoma = experiment: Confocal microscopy apoptosis; format: cell-based, human; conditions: 200 ng/ml; 24 hrs
Experimental: as §1

[8] = Lethally irradiated rats and mice; conditions: for survival: treated at time of radiation, 3×/week for 4 weeks

VVCNYRDVRFESIRLPGCPRGVNPVVSYAVALSCQ [MA]
survived longest: relative survival ([8]; pretreated, higher dose)
little or no gastrointestinal distress: gastrointestinal distress ([8]; in vivo)
induced apoptosis: induction of apoptosis [1] | induction of apoptosis [2] | induction of apoptosis (fibrosarcoma 4TB166) | induction of apoptosis [3] | induction of apoptosis [4] | induction of apoptosis [5] | induction of apoptosis (KS Y-1 cells) | induction of apoptosis [6] | induction of apoptosis [7] | induction of apoptosis (gliobastoma HTB16) | induction of apoptosis (carcinoma of the colon) | induction of apoptosis (melanoma HTB67) | induction of apoptosis (Ewing's sarcoma)
80%: survival ([8]; lowest doses)
100%: survival ([8]; higher dose, over 100 days)
